Experimental data taken from patent US20090270342A1, “IMMUNOREGULATORY AGENT” (priority 2006, published 2009).

Test system: intestinal lymph node cells
Experiment: Production of IgA, IgG and cytokines by intestinal lymph node cells of mice fed lactosucrose (Experiment 3)
Type: in vivo
Conditions: for IFN-γ produced by intestinal lymph node cells / IL-4 produced by intestinal lymph node cells / IL-6 produced by intestinal lymph node cells / IL-10 produced by intestinal lymph node cells / IgA produced by intestinal lymph node cells / IgG produced by intestinal lymph node cells: four weeks
Protocol: In order to investigate what type of immunopathologically-mediated tissue exerts the enhancing effect on gut immunity, the amounts of IgA, IgG, and various cytokines were measured. Similarly as in Experiment 1, female BALB/c mice (six weeks old) were preliminary reared for one week on “AIN-93G”, the same standard purified diet as used in Experiment 1. Successively, “LS-90P”, a saccharide composition comprising 91.8% (w/w), on a dry solid basis, of lactosucrose commercialized by ENSUIKO Sugar Refining Co., Ltd., Tokyo, Japan, was incorporated into the above purified diet, in which corn starch equal to the amount of the saccharide composition comprising lactosucrose had been removed, to give a lactosucrose content of 2% (w/w) or 5% (w/w), and five mice/group were allowed to ingest the resulting test diet freely. Mice, allowed to ingest “AIN-93G”, as the standard purified diet, were used as control. At four weeks after starting the administration of the test diet, Peyer's patch and intestinal lymph nodes were respectively removed from the mice and cut using a scissor. Then, the resultants were respectively treated in 0.2% (w/v) aqueous collagenase solution at 37° C. for 30 min, and filtrated using a cell strainer to obtain cell suspensions. Each cell suspension was centrifuged to collect cells and the resulting cells were suspended into a 45% (v/v) solution of “PERCOLL”, commercialized by GE Healthcare, to make into a cell suspension. Each resulting suspension was successively placed on a 75% (v/v) “PERCOLL” solution and centrifuged at 1,000×g for 10 min. Cells in a boundary phase between 45% (v/v) and 75% (v/v) “PERCOLL” solution were collected and suspended in RPMI1640 medium comprising 10% FCS and 10 mM HEPES, and the cell concentration was adjusted to 1×10^6 cells/ml. The resulting cell suspension was placed in a 24-well plate to give one ml/well each. Then, 2 μg/ml of Concanavaline A (Con A) as a stimulator to T-cell or 10 μg/ml of lipopolysaccharide (LPS) as a stimulator to B-cell and macrophage cell was admixed with the cell suspension, and then the cells were cultured at 37° C. for 48 hours using 5% (v/v) carbon dioxide gas. A culture supernatant was collected from each well, and the amounts of IgA, IgG, IFN-γ, interleukin-4 (IL-4), IL-6, interleukin-10 (IL-10), and TGF-β were measured by ELISA using an anti-mouse IgA antibody, anti-mouse IgG antibody, anti-mouse IFN-γ antibody (commercialized by Pepro Tech EC. Ltd.), anti-mouse IL-4 antibody (commercialized by R&D Systems), anti-mouse IL-6 antibody (commercialized by R&D Systems), anti-mouse IL-10 antibody (commercialized by R&D Systems), and anti-mouse TGF-β antibody (commercialized by Promega Co., Wisconsin, USA), and the average values of those from five mice were determined. The results for Peyer's patch cells and intestinal lymph node cells are respectively in Tables 3 and 4. The percentages in parentheses in the tables mean a relative value to the amount of IgA, IgG, IFN-γ, IL-4, IL-6, IL-10 or TGF-β produced by Peyer's patch cells or intestinal lymph node cells from the control mice.

[1] = Lactosucrose 2% (w/w) diet, Con A
[2] = Lactosucrose 2% (w/w) diet, LPS
[3] = Lactosucrose 2% (w/w) diet, LPS, DL: Detection limit
[4] = Lactosucrose 5% (w/w) diet, Con A
[5] = Lactosucrose 5% (w/w) diet, LPS
[6] = Lactosucrose 5% (w/w) diet, LPS, DL: Detection limit

`OC[C@H]1O[C@@H](O[C@H]2[C@H](O)[C@@H](O)[C@@H](O[C@]3(CO)O[C@H](CO)[C@@H](O)[C@@H]3O)O[C@@H]2CO)[C@H](O)[C@@H](O)[C@H]1O` [Lactosucrose, β-D-galactosyl-(1,4)-α-D-glucosyl-(1,2)-β-D-fructoside] was tested, and the “IFN-γ produced by intestinal lymph node cells” value [1] was 8.5 ± 3.4 ng/mL, the “IL-4 produced by intestinal lymph node cells” value [1] was 22 ± 0.89 pg/mL and the “IL-6 produced by intestinal lymph node cells” value [1] was 3.0 ± 0.81 pg/mL. For the same molecule, the “IL-10 produced by intestinal lymph node cells” value [1] was 14 ± 15 pg/mL, the “IgA produced by intestinal lymph node cells” value [1] was 41 ± 15 µg/mL and the “IgG produced by intestinal lymph node cells” value [1] was 1.9 ± 1.5 ng/mL. For the same molecule, the “IL-6 produced by intestinal lymph node cells” value [2] was 7.4 ± 2.6 pg/mL, the “IgA produced by intestinal lymph node cells” value [2] was 38 ± 17 µg/mL and the “IgG produced by intestinal lymph node cells” value [2] was 1.5 ± 1.0 ng/mL. The “IFN-γ produced by intestinal lymph node cells” value [3] was “Below DL*”, the “IL-4 produced by intestinal lymph node cells” value [3] was “Below DL*” and the “IL-10 produced by intestinal lymph node cells” value [3] was “Below DL*”. The “IFN-γ produced by intestinal lymph node cells, relative value to control” value (Lactosucrose 2% (w/w), Con A) was “(127%)”, the “IL-4 produced by intestinal lymph node cells, relative value to control” value (Lactosucrose 2% (w/w), Con A) was “(88%)” and the “IL-6 produced by intestinal lymph node cells, relative value to control” value (“IL-6 produced … relative value to control” for short) (Lactosucrose 2% (w/w), Con A) was “(103%)”. The “IL-10 produced by intestinal lymph node cells, relative value to control” value (Lactosucrose 2% (w/w), Con A) was “(127%)”, the “IgA produced by intestinal lymph node cells, relative value to control” value (shortened to “IgA produced … relative value to control”) (Lactosucrose 2% (w/w), Con A) was “(85%)” and the “IgG produced by intestinal lymph node cells, relative value to control” value (shortened to “IgG produced … relative value to control”) (Lactosucrose 2% (w/w), Con A) was “(100%)”. For the same molecule, the “IL-6 produced … relative value to control” value (Lactosucrose 2% (w/w), LPS) was “(107%)”, the “IgA produced … relative value to control” value (Lactosucrose 2% (w/w), LPS) was “(93%)” and the “IgG produced … relative value to control” value (Lactosucrose 2% (w/w), LPS) was “(115%)”. The “IFN-γ produced by intestinal lymph node cells” value [4] was 3.8 ± 1.2 ng/mL, the “IL-4 produced by intestinal lymph node cells” value [4] was 21 ± 1.1 pg/mL and the “IL-6 produced by intestinal lymph node cells” value [4] was 2.7 ± 0.44 pg/mL. For the same molecule, the “IL-10 produced by intestinal lymph node cells” value [4] was 14 ± 12 pg/mL, the “IgA produced by intestinal lymph node cells” value [4] was 37 ± 31 µg/mL and the “IgG produced by intestinal lymph node cells” value [4] was 1.00 ± 0.94 ng/mL. The “IL-6 produced by intestinal lymph node cells” value [5] was 4.3 ± 1.1 pg/mL, the “IgA produced by intestinal lymph node cells” value [5] was 29 ± 22 µg/mL and the “IgG produced by intestinal lymph node cells” value [5] was 0.79 ± 0.79 ng/mL. The “IFN-γ produced by intestinal lymph node cells” value [6] was “Below DL*”, the “IL-4 produced by intestinal lymph node cells” value [6] was “Below DL*” and the “IL-10 produced by intestinal lymph node cells” value [6] was “Below DL*”. For the same molecule, the “IFN-γ produced by intestinal lymph node cells, relative value to control” value (Lactosucrose 5% (w/w), Con A) was “(57%)”, the “IL-4 produced by intestinal lymph node cells, relative value to control” value (Lactosucrose 5% (w/w), Con A) was “(84%)” and the “IL-6 produced … relative value to control” value (Lactosucrose 5% (w/w), Con A) was “(93%)”. For the same molecule, the “IL-10 produced by intestinal lymph node cells, relative value to control” value (Lactosucrose 5% (w/w), Con A) was “(127%)”, the “IgA produced … relative value to control” value (Lactosucrose 5% (w/w), Con A) was “(77%)” and the “IgG produced … relative value to control” value (Lactosucrose 5% (w/w), Con A) was “(53%)”. The “IL-6 produced … relative value to control” value (Lactosucrose 5% (w/w), LPS) was “(62%)”, the “IgA produced … relative value to control” value (Lactosucrose 5% (w/w), LPS) was “(71%)” and the “IgG produced … relative value to control” value (Lactosucrose 5% (w/w), LPS) was “(61%)”.
